Measurements reported in patent US20260365670A1, “EGFR INHIBITORS AND USES THEREOF” (DIZAL (JIANGSU) PHARMACEUTICAL CO., LTD., priority 2022, published 2026).
Like-named read-outs stand apart in the source and are kept apart here.

How the values were obtained:
Format in all cases: cell-based
[1] = system: Ba/F3 cells expressing EGFR mutations; assay: Cell proliferation assay, Ba/F3 cells expressing EGFR mutations (CellTiter-Glo, 72 hours); conditions: CellTiter-Glo
Summary of the method: (§1)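 Luminescent viable-cell counts were taken on a day 0 plate at dosing and again at endpoint. Proliferation was calculated as (sample − G0)/(DMSO − G0). Seeding was 5000 Ba/F3 or 500 PC-9 cells per well in RPMI1640, followed by overnight attachment and serial compound dilutions. The GI50 was fitted.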

PC-9 = assay: Cell proliferation assay, PC-9 cells (CellTiter-Glo, 72 hours); conditions: PC9 cells, CellTiter-Glo, read-out: PC9 GI50
Summary of the method: as §1

A-431 = assay: Cell proliferation GI50, A-431 cells (Table 6)
Protocol: [Worded in the source for another cell line; this cell line is reported under the same test.] Ba/F3 cells expressing EGFR mutations were seeded in 384-well plates at 5000 cells/well in RPMI1640 medium containing […]. PC-9 at 500 cells/well was seeded into 384-well plates in RPMI1640 medium with 10% FBS. After overnight incubation, the assay plates were dosed with compounds at a series of concentrations. Alongside dosing the assay plates, the day 0 plate was processed using CellTiter-Glo® Luminescent Cell Viability Assay (Promega) to measure the number of viable cells (G0). The assay plates were further incubated for 72 hours and the number of viable cells (G3) was measured. The percentage of proliferation was calculated as: […]=100×(G3 value of sample well−G0 value)/(G3 value of DMSO control−G0 value). The concentration of compound producing 50% proliferation inhibition (GI50) was further calculated in best-fit curves using XLFit software. N/A=not available.

[2] = BaF3 cells, EGFR DEL19-C797S, read-out: DEL19-C797S/BaF3 GI50
[3] = BaF3 cells, EGFR DEL19-T790-C797S, read-out: DEL19-T790-C797S/BaF3 GI50
[4] = BaF3 cells, EGFR L858R, read-out: L858R/BaF3 GI50
[5] = BaF3 cells, EGFR L858R-C797S, read-out: L858R-C797S/BaF3 GI50
[6] = BaF3 cells, EGFR L858R-T790-C797S, read-out: L858R-T790-C797S/BaF3 GI50
[7] = BaF3 cells, EGFR L858R-T790M, read-out: L858R-T790M/BaF3 GI50
[8] = EGFR DEL19-T790M, read-out: DEL19-T790M GI50
[9] = Mus musculus, BaF3, 72 h, BaF3 cells, EGFR DEL19-C797S, read-out: DEL19-C797S/BaF3 GI50
[10] = Mus musculus, BaF3, 72 h, BaF3 cells, EGFR DEL19-T790-C797S, read-out: DEL19-T790-C797S/BaF3 GI50
[11] = Mus musculus, BaF3, 72 h, BaF3 cells, EGFR L858R, read-out: L858R/BaF3 GI50
[12] = Mus musculus, BaF3, 72 h, BaF3 cells, EGFR L858R-C797S, read-out: L858R-C797S/BaF3 GI50
[13] = Mus musculus, BaF3, 72 h, BaF3 cells, EGFR L858R-T790-C797S, read-out: L858R-T790-C797S/BaF3 GI50
[14] = Mus musculus, BaF3, 72 h, BaF3 cells, EGFR L858R-T790M, read-out: L858R-T790M/BaF3 GI50
[15] = Homo sapiens, A-431, A-431 cells
[16] = Mus musculus, BaF3, 72 h, EGFR DEL19-T790M, read-out: DEL19-T790M GI50

Structure (SMILES)	GI50 [1, 2] [nM]	GI50 [1, 3] [nM]	GI50 [1, 4] [nM]	GI50 [1, 5] [nM]	GI50 [1, 6] [nM]	GI50 [1, 7] [nM]	GI50 [1, 8] [nM]	GI50 (PC-9) [nM]	GI50 (A-431; A-431 cells) [nM]	GI50 [1, 9] [nM]	GI50 [1, 10] [nM]	GI50 [1, 11] [nM]	GI50 [1, 12] [nM]	GI50 [1, 13] [nM]	GI50 [1, 14] [nM]	GI50 (PC-9; Homo sapiens, PC-9, 72 h) [nM]	GI50 (A-431; [15]) [nM]	GI50 [1, 16] [nM]
CN1CCN(c2ccc3nc4n(c3c2)C23CCC(CN(CCOc5c(cnn5C)-c5cc(cn(C)c5=O)C(=O)N4)C2)C3)CC1 (single isomer, unassigned) [Example A63A]	324	540	2370	1020	988	3690	929	841	9370	–	–	–	–	–	–	–	–	–
CN(C)C1CN(c2ccc3nc4n(c3c2)C23CCC(CN(CCOc5c(cnn5C)-c5cc(cn(C)c5=O)C(=O)N4)C2)C3)CC1(F)F (single isomer, unassigned) [Example A99A]	966	2900	372	1560	874	2630	1250	3090	–	–	–	–	–	–	–	–	4930	–
Cn1ncc2c1OCCN1CC3CCC(C3)(C1)n1c(nc3ccc(N4CCOCC4)cc31)NC(=O)c1cc-2c(=O)n(C)c1 (single isomer, unassigned) [Example A62A, 15,21-Dimethyl-5-(morpholin-4-yl)-23-oxa-2,9,11,15,20,21,26-heptaazaheptacyclo[24.4.1.1^{1,28}.1^{13,17}.0^{2,10}.0^{3,8}.0^{18,22}]tritriaconta-3,5,7,9,13,17(33),18(22),19-octaene-12,16-dione]	393	1350	2150	1200	2380	1050	1400	1320	7120	–	–	–	–	–	–	–	–	–
Cn1ncc2c1OCCN1CC3CCC(C3)(C1)n1c(nc3ccc(N4CCN(C5COC5)CC4)cc31)NC(=O)c1cc-2c(=O)n(C)c1 (single isomer, unassigned) [Example A71A]	286	579	1760	954	762	2410	735	787	7860	–	–	–	–	–	–	–	–	–
CN1CCN(C2CCN(c3ccc4nc5n(c4c3)C34CCC(CN(CCOc6c(cnn6C)-c6cc(cn(C)c6=O)C(=O)N5)C3)C4)C2)CC1 (single isomer, unassigned) [Example A80B, 15,21-Dimethyl-5-[3-(4-methylpiperazin-1-yl)pyrrolidin-1-yl]-23-oxa-2,9,11,15,20,21,26-heptaazaheptacyclo[24.4.1.1^{1,28}.1^{13,17}.0^{2,10}.0^{3,8}.0^{18,22}]tritriaconta-3,5,7,9,13,17(33),18(22),19-octaene-12,16-dione]	0.69	1.3	0.69	0.8	2.5	2.7	1.2	3.3	483	–	–	–	–	–	–	–	–	–
CN(C)C1CN(c2ccc3nc4n(c3c2)C23CCC(CN(CCOc5c(cnn5C)-c5cc(cn(C)c5=O)C(=O)N4)C2)C3)C1 (single isomer, unassigned) [Example A65A]	209	452	945	561	656	1970	652	710	2200	–	–	–	–	–	–	–	–	–
CN1CC2CN(c3ccc4nc5n(c4c3)C34CCC(CN(CCOc6c(cnn6C)-c6cc(cn(C)c6=O)C(=O)N5)C3)C4)CC2C1 (single isomer, unassigned) [Example A68A]	196	409	480	402	366	1120	543	460	5320	–	–	–	–	–	–	–	–	–
Cn1ncc2c1OCCN1CC3CCC(C3)(C1)n1c(nc3ccc(N4CCC(N5CC(F)C5)C4)cc31)NC(=O)c1cc-2c(=O)n(C)c1 (single isomer, unassigned) [Example A94A1, 5-[3-(3-Fluoroazetidin-1-yl)pyrrolidin-1-yl]-15,21-dimethyl-23-oxa-2,9,11,15,20,21,26-heptaazaheptacyclo[24.4.1.1^{1,28}.1^{13,17}.0^{2,10}.0^{3,8}.0^{18,22}]tritriaconta-3,5,7,9,13,17(33),18(22),19-octaene-12,16-dione]	936	2960	754	1800	882	2650	2030	2330	3540	–	–	–	–	–	–	–	–	–
Cn1ncc2c1OCCN1CC3CCC(C3)(C1)n1c(nc3ccc(N4CCC(N5CC(F)C5)C4)cc31)NC(=O)c1cc-2c(=O)n(C)c1 (single isomer, unassigned) [Example A94A2, 5-[3-(3-Fluoroazetidin-1-yl)pyrrolidin-1-yl]-15,21-dimethyl-23-oxa-2,9,11,15,20,21,26-heptaazaheptacyclo[24.4.1.1^{1,28}.1^{13,17}.0^{2,10}.0^{3,8}.0^{18,22}]tritriaconta-3,5,7,9,13,17(33),18(22),19-octaene-12,16-dione]	1090	3940	715	1480	634	2710	2100	1940	1800	–	–	–	–	–	–	–	–	–
CN1CCN(C2CN(c3ccc4nc5n(c4c3)C34CCC(CN(CCOc6c(cnn6C)-c6cc(cn(C)c6=O)C(=O)N5)C3)C4)C2)CC1 (single isomer, unassigned) [Example A70A]	188	411	603	452	463	1870	517	554	3100	–	–	–	–	–	–	–	–	–

Now from value to molecule:

GI50 [1, 2] [nM]	GI50 [1, 3] [nM]	GI50 [1, 4] [nM]	GI50 [1, 5] [nM]	GI50 [1, 6] [nM]	GI50 [1, 7] [nM]	GI50 [1, 8] [nM]	GI50 (PC-9) [nM]	GI50 (A-431; A-431 cells) [nM]	GI50 [1, 9] [nM]	GI50 [1, 10] [nM]	GI50 [1, 11] [nM]	GI50 [1, 12] [nM]	GI50 [1, 13] [nM]	GI50 [1, 14] [nM]	GI50 (PC-9; Homo sapiens, PC-9, 72 h) [nM]	GI50 (A-431; [15]) [nM]	GI50 [1, 16] [nM]	Structure (SMILES)
–	–	–	–	–	–	–	–	–	2.3	3.4	25	10	13	30	35	790	–	C[C@@H]1CCCOc2c(cnn2C)-c2cc(cn(C)c2=O)C(=O)Nc2nc3ccc(N4CC5CC4CN5C)cc3n2C1 (some centres unmarked) [Example A31]
–	–	–	–	–	–	–	–	–	5.1	16	8.6	14	9.3	29	15	245	20	C[C@@H]1CCCOc2c(cnn2C)-c2cc(cn(C)c2=O)C(=O)Nc2nc3ccc(N4CC(N5CCOCC5)C4)cc3n2C1 [Example A45]
–	–	–	–	–	–	–	–	–	2.3	3.6	13	11	13	24	17	719	15	C[C@@H]1CCCOc2c(cnn2C)-c2cc(cn(C)c2=O)C(=O)Nc2nc3ccc(N4CC5CN(C)CC5C4)cc3n2C1 (some centres unmarked) [Example A30]
–	–	–	–	–	–	–	–	–	279	830	1050	1160	976	803	424	1410	768	CCN1CCOc2c(cnn2C)-c2cc(cn(C)c2=O)C(=O)Nc2nc3ccccc3n2C(C)(C)C1 [Example A7, 10-Ethyl-5,12,12,26-tetramethyl-7-oxa-4,5,10,13,20,22,26-heptaazapentacyclo[22.3.1.0^{2,6}.0^{13,21}.0^{14,19}]octacosa-1(28),2(6),3,14,16,18,20,24-octaene-23,27-dione]
–	–	–	–	–	–	–	–	–	666	1750	2690	2250	2150	1720	903	2610	1790	Cn1ncc2c1OCCN1CCC(C)(C1)n1c(nc3ccc(N4CCOCC4)cc31)NC(=O)c1cc-2c(=O)n(C)c1 (centres unmarked) [Example A11, 5,13,27-trimethyl-17-(morpholin-4-yl)-7-oxa-4,5,10,14,21,23,27-heptaazahexacyclo[23.3.1.1^{10,13}.0^{2,6}.0^{14,22}.0^{15,20}]triaconta-1(29),2(6),3,15,17,19,21,25-octaene-24,28-dione]
